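Method: 48-hour compound exposure of cells in 96-well plates, five concentrations, linear interpolation of endpoints. Here, GI50 denotes the concentration required for 50% inhibition of growth. TGI: concentration producing complete growth inhibition.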
Key:
Experiment in all cases: DTP human tumour cell line panel, 48 h
NCI-H23 lung = system: NCI-H23 lung
SK-OV-3 ovarian = system: SK-OV-3 ovarian
SK-MEL-28 melanoma = system: SK-MEL-28 melanoma
T-47D breast = system: T-47D breast
SNB-19 CNS = system: SNB-19 CNS
MOLT-4 leukemia = system: MOLT-4 leukemia
HS 578T breast = system: HS 578T breast
HOP-62 NSCLC = system: HOP-62 NSCLC
HCC-2998 colon = system: HCC-2998 colon
RXF 393 renal = system: RXF 393 renal

Compound | GI50 (NCI-H23 lung) [nM] | TGI (NCI-H23 lung) [µM] | GI50 (SK-OV-3 ovarian) [µM] | TGI (SK-OV-3 ovarian) [µM] | GI50 (SK-MEL-28 melanoma) [µM] | TGI (SK-MEL-28 melanoma) [µM] | GI50 (T-47D breast) [µM] | TGI (T-47D breast) [µM] | GI50 (SNB-19 CNS) [µM] | TGI (SNB-19 CNS) [µM] | GI50 (MOLT-4 leukemia) [µM] | TGI (MOLT-4 leukemia) [µM] | GI50 (HS 578T breast) [µM] | TGI (HS 578T breast) [µM] | GI50 (HOP-62 NSCLC) [µM] | TGI (HOP-62 NSCLC) [µM] | GI50 (HCC-2998 colon) [µM] | TGI (HCC-2998 colon) [µM] | TGI (RXF 393 renal) [µM] | GI50 (RXF 393 renal) [µM]
COc1ccc(-n2cc(-c3cc(OC)c(OC)c(OC)c3)[nH]c2=O)cc1Cl | > 100000 | > 100 | 31.8 | > 100 | > 100 | > 100 | > 100 | > 100 | 42.6 | > 100 | > 100 | > 100 | 34.9 | > 100 | 51.7 | > 100 | > 100 | > 100 | – | –
CN1C(=O)c2ccccc2NC(=O)C12O[C@@H]2c1cccc(O)c1 (stereo partly drawn) | – | > 100 | – | – | – | > 100 | – | > 100 | – | > 100 | – | > 100 | – | > 100 | – | > 100 | – | > 100 | – | –
N#CCc1ccc(C(C#N)/C(CCCC(=O)Nc2cccc([N+](=O)[O-])c2)=N/NC(N)=S)cc1 (stereo not drawn) | – | > 100 | – | > 100 | – | > 100 | – | – | – | > 100 | – | > 100 | – | – | – | > 100 | – | > 100 | > 100 | –
CCC(=O)c1c(C(F)(F)F)n([O-])c2ccc(C)cc2[n+]1=O | 1200 | 6.1 | 8.45 | 49.3 | 28.2 | > 50 | 6.51 | 26.8 | 15.2 | > 50 | 14.1 | > 50 | – | – | 11.3 | > 50 | 5.92 | 21.9 | > 50 | 23.4
COc1ccc(/C=C\c2cc(OC)c(OC)c(OC)c2)cc1OC(=O)NCCN(C)C | – | 0.00431 | – | – | < 0.0001 | 43.1 | – | – | – | > 100 | – | < 0.0494 | – | – | – | > 100 | < 0.0469 | 0.487 | < 0.0001 | –
CC1(C)N=C(N)N=C(N)N1c1ccc(OCc2ccc(S(=O)(=O)F)c(Cl)c2)c(Cl)c1 | 2090 | > 100 | > 100 | > 100 | 8.61 | > 100 | 77.7 | > 100 | 6.76 | > 100 | 3.59 | > 100 | – | – | 7.93 | > 100 | 4.97 | > 100 | > 100 | 18.7
CC1=N/C(=C\c2cccc([N+](=O)[O-])c2)C(=O)O1 | – | > 100 | – | – | – | > 100 | – | – | – | > 100 | – | > 100 | – | – | – | > 100 | – | > 100 | > 100 | –
COc1ccc(/C(Cl)=C(\C=O)c2ccc([N+](=O)[O-])cc2)cc1 | – | 50.6 | – | 76.7 | – | > 93.8 | – | – | – | > 31.6 | – | 7.24 | – | – | – | 52.8 | – | 62.6 | 38.6 | –
CC(C)c1ccc(C(c2ccc(OCC(=O)O)cc2)c2ccc(C(C)C)cc(=O)c2O)c(O)c(=O)c1 | – | 20.4 | – | 41.9 | – | 24.5 | – | – | – | 28 | – | 30.7 | – | – | – | 26.2 | – | 20.3 | 27.2 | –
N.N.O=C([O-])P(=O)([O-])[O-].[Na+].[Pt+4] | > 100000 | > 100 | > 100 | > 100 | > 100 | > 100 | – | – | > 100 | > 100 | > 100 | > 100 | – | – | > 100 | > 100 | > 100 | > 100 | > 100 | > 100
COC(=O)C12C3C4C1C1C2C3C41NC(=O)c1csc([C@@H](C[C@H](C(C)C)N(C)C(=O)[C@@H](NC(=O)[C@H]2CCCCN2C)C2CC2)OC(C)=O)n1 (stereo partly drawn) | 151 | > 33.3 | 0.148 | > 33.3 | – | > 33.3 | – | – | 0.077 | > 33.3 | 0.00729 | > 33.3 | 0.00773 | > 33.3 | 0.048 | > 33.3 | 0.146 | > 33.3 | – | –
CCOC(=O)CCn1[nH]c(=O)c(Cl)c(Cl)c1=O | – | > 100 | – | > 100 | – | > 100 | – | – | – | > 100 | – | – | – | – | – | > 100 | – | > 100 | > 100 | –
CCc1ccc(Nc2ccc([N+](=O)[O-])cc2[N+](=O)[O-])cc1 | – | > 100 | – | > 100 | – | > 100 | – | – | – | – | – | > 100 | – | – | – | > 100 | – | > 100 | > 100 | –
COc1ccc(CNc2nc3cc(C(F)(F)F)ccc3nc2C)cc1OC | – | > 100 | – | > 100 | – | > 100 | – | – | – | > 100 | – | 45.7 | – | – | – | 69.9 | – | 58.9 | – | –
COc1ccc2c3c(coc13)C(CCC(=O)O)CC2 (stereo not drawn) | – | > 100 | – | > 100 | – | > 100 | – | – | – | > 100 | – | – | – | – | – | > 100 | – | > 100 | > 100 | –
COc1cc2c(c(OC)c1)C1(CC(CC#N)C2)SCCS1 (stereo not drawn) | – | – | – | > 100 | – | > 100 | – | – | – | > 100 | – | > 100 | – | – | – | > 100 | – | > 100 | > 100 | –
COC1=CC2(C=CC1=O)c1cc(OC)c(OC)cc1CCN2C(=O)c1ccccc1 (stereo not drawn) | – | > 100 | – | > 100 | – | > 100 | – | – | – | > 100 | – | > 100 | – | – | – | – | – | > 100 | > 100 | –
O=C(/C=C/c1c(O)ccc2ccccc12)c1ccccc1 | – | > 100 | – | > 100 | – | > 100 | – | – | – | > 100 | – | > 100 | – | – | – | > 100 | – | > 100 | > 100 | –
COC(C(O)c1ccc2c(c1)OCO2)P(=O)(c1ccccc1)c1ccccc1 (stereo not drawn) | – | > 100 | – | – | – | > 100 | – | – | – | > 100 | – | > 100 | – | – | – | > 100 | – | – | > 100 | –
Cc1ccc(-c2cc(=O)c3cc(C)c(C)c(C(=O)O)c3o2)cc1C | – | > 100 | – | > 100 | – | > 100 | – | – | – | > 100 | – | > 100 | – | – | – | > 100 | – | > 100 | > 100 | –
c1cc2c(ncc3cscc32)s1 | – | > 100 | – | – | – | > 100 | – | – | – | > 100 | – | > 100 | – | > 100 | – | > 100 | – | > 100 | > 100 | –
Fc1ccc(C2SCc3nc4ccccc4n32)cc1Cl (stereo not drawn) | – | 58.1 | – | 49.5 | – | 61.2 | – | – | – | > 100 | – | 69.9 | – | – | – | 55.9 | – | 37.2 | 50 | –
